Assays:
[1] = test system: HIV; assay: Anti-HIV activity (MT-4 cells, MTT); assay type: cell-based; details: Human immunodeficiency virus 1, MT4, 96 h, cultured 4 days
Procedure: Serial dilutions of a test sample were prepared in a 96-well microplate (50 μL/well). 2.5×10^5 cells/mL of a MT-4 cell suspension was dispensed at 100 μL/well to the plate containing the test sample. Then, an HIV virus solution was dispensed at 50 μL/well. The plate was mixed with a plate mixer and cultured for 4 days in a CO2 incubator. An MTT (3-(4,5-dimethylthiazol-2-yl)-2,5-diphenyltetrazolium bromide) solution was dispensed at 30 μL/well. The plate was reacted for 1 hour in a CO2 incubator. 150 μL of the supernatant was removed from each well so as not to take up the cells. 150 μL of a cell lysis solution was added to each well and well mixed with a plate mixer until the cells were completely lysed. The absorbance of the mixed plate was measured at two wavelengths of 560 nm and 690 nm with a microplate reader.

[2] = test system: HIV mutant strain 1 (E138K/G140S/Q148H/N155H); assay: Resistance evaluation test (HeLa-CD4 reporter), mutant strain 1; assay type: cell-based; details: FC=EC50 of mutant strain/EC50 of wild strain, HeLa-CD4 cells
Procedure: (§1) Serial dilutions of a test sample were prepared in a96-well microplate (50 μL/well). 2.5×10^5 cells/mL of a HeLa-CD4 cell suspension was dispensed at 100 μL/well to the plate containing the test sample. Then, an HIV virus solution (wild strain and mutant strain) was dispensed at 50 μL/well. The plate was mixed with a plate mixer and cultured for 3 days in a CO2 incubator. The culture supernatant in each well was removed by suction. A cell lysis buffer in a reporter assay kit was dispensed at 100 μL/well, and the plate was frozen in a freezer (−80° C.). The plate frozen in a freezer was thawed at room temperature, then mixed with a plate mixer, and centrifuged at 1,200 rpm for 5 minutes. The supernatant of each well was dispensed at 20 μL/well to a 96-well microplate (BLACK). A chemiluminescent reagent in the reporter assay kit was dispensed at 100 μL/well and reacted at room temperature for approximately 1 hour. Then, luminescence intensity was measured using MicroBeta TRILUX. […] FC=EC50 of mutant strain/EC50 of wild strain (Results) FC for the mutant strain 1 (E138K/G140S/Q148H/N155H) and FC for the mutant strain 2 (E92Q/E138T/G140S/Q148H) are shown in the table.

[3] = test system: HIV mutant strain 2 (E92Q/E138T/G140S/Q148H); assay: Resistance evaluation test (HeLa-CD4 reporter), mutant strain 2; assay type: cell-based; details: FC=EC50 of mutant strain/EC50 of wild strain, HeLa-CD4 cells
Procedure: as §1

[4] = Metabolic stability test; assay type: in vitro ADME, human; design: key: % remaining vs amount at 0 min (=100%); details: compound 0.5 μmol/L, human liver microsomes 0.5 mg protein/mL, NADPH, 37° C., 30 minutes; amount at 0 minutes defined as 100%
Procedure: Commercially available pooled human liver microsomes were reacted with the compound of the present invention for a certain time. A residual rate was calculated by the comparison between the reacted sample and an unreacted sample to evaluate the degree at which the compound of the present invention is metabolized in the liver. A reaction was performed (oxidative reaction) at 37° C. for 0 minutes or 30 minutes in the presence of 1 mmol/L NADPH in 0.2 mL of a buffer (50 mmol/L Tris-HCl pH 7.4, 150 mmol/L potassium chloride, 10 mmol/L magnesium chloride) containing 0.5 mg protein/mL of human liver microsomes. After the reaction, 50 μL of the reaction solution was added to 100 μL of a solution of methanol/acetonitrile=1/1 (v/v) and mixed, and the mixture was centrifuged at 3000 rpm for 15 minutes. The compound of the present invention in the centrifugation supernatant was quantified by LC/MS/MS or solid-phase extraction (SPE)/MS. The amount of the compound of the present invention remaining after the reaction was calculated with the amount of the compound at 0 minutes of the reaction defined as 100%.

Row | SMILES | EC50 [1] | FC mutant strain 1 [2] | FC mutant strain 2 [3] | residual rate [4]
1 | CCN1C(=O)c2c(O)c(=O)c(C(=O)NCc3ccc(F)cc3F)cn2N2CCCC[C@@]12C [Compound I-006] | 0.76 nM | 24 | 16 | 92.5
2 | CCN1C(=O)c2c(O)c(=O)c(C(=O)NCc3c(F)cc(F)cc3F)cn2N2CCCC[C@@H]12 [Compound I-011] | 2.2 nM | 13 | 10 | 88
3 | CC(C)N1C(=O)c2c(O)c(=O)c(C(=O)NCc3c(F)cc(F)cc3F)cn2N2C[C@@H]3CC[C@@H](O3)[C@@H]12 [II-005] | 0.62 nM | 3.1 | 7.4 | 80.2
4 | COC[C@@H]1CC[C@H]2N(C(C)C)C(=O)c3c(O)c(=O)c(C(=O)NCc4ccccc4F)cn3N12 [II-009] | 2.6 nM | 4.6 | 7.7 | 80.8
5 | CC(C)N1C(=O)c2c(O)c(=O)c(C(=O)NCc3ccccc3F)cn2N2C[C@@H]3CC[C@@H](O3)[C@@H]12 [II-013] | 0.4 nM | 5.6 | 6.4 | 87
6 | CCN1C(=O)c2c(O)c(=O)c(C(=O)NCc3c(F)cc(F)cc3F)cn2N2C[C@@H]3CC[C@@H](C3)[C@@H]12 [II-015] | 0.95 nM | 5.7 | 7.3 | 74.3
7 | CCN1C(=O)c2c(O)c(=O)c(C(=O)NCc3ccc(F)cc3F)cn2N2C[C@@H]3CCC[C@@H](C3)[C@@H]12 [II-018] | 2.9 nM | 6.1 | 8.7 | 77.6
8 | CCN1C(=O)c2c(O)c(=O)c(C(=O)NCc3c(F)cc(F)cc3F)cn2N2C[C@@H](C)CC[C@@H]12 [II-020] | 1.5 nM | 6.4 | 8.9 | 90.7
9 | CC(C)N1C(=O)c2c(O)c(=O)c(C(=O)NCc3ccc(F)cc3F)cn2N2C[C@@H]3CC[C@@H](O3)[C@@H]12 [II-021] | 0.72 nM | 6.6 | 9 | 89.1
10 | CN1C(=O)c2c(O)c(=O)c(C(=O)NCc3cccc(Cl)c3F)cn2N2CCCC[C@@H]12 [II-022] | 0.74 nM | 6.8 | 7.7 | 101
11 | CCN1C(=O)c2c(O)c(=O)c(C(=O)NCc3ccc(F)cc3F)cn2N2CC[C@@H](C)C[C@@H]12 [II-023] | 0.46 nM | 7 | 4.2 | 82.9
12 | C[C@H]1CC[C@H]2N(C)C(=O)c3c(O)c(=O)c(C(=O)NCc4cccc(Cl)c4F)cn3N2C1 [II-024] | 1.4 nM | 7.3 | 7 | 84.1
13 | CC(C)N1C(=O)c2c(O)c(=O)c(C(=O)NCc3ccc(F)cc3F)cn2N2CCOC[C@@H]12 [II-026] | 0.18 nM | 8.1 | 14 | 87.5
14 | CCN1C(=O)c2c(O)c(=O)c(C(=O)NCc3ccc(F)cc3F)cn2N2C[C@@H](COC)C[C@@H]12 [II-041] | 0.66 nM | 15 | 28 | 94.3
15 | C[C@H]1C[C@H]2N(C)C(=O)c3c(O)c(=O)c(C(=O)NCc4cccc(Cl)c4F)cn3N2C1 [II-042] | 3.2 nM | 15 | 7.9 | 97.4
16 | CCN1C(=O)c2c(O)c(=O)c(C(=O)NCc3c(F)cc(F)cc3F)cn2N2C[C@@H]3CC[C@@H](O3)[C@@H]12 [II-046] | 0.19 nM | 17 | 28 | 88.4
17 | C[C@@H]1CCN2[C@@H](C1)N(C)C(=O)c1c(O)c(=O)c(C(=O)NCc3c(F)cc(F)cc3F)cn12 [II-130] | 0.13 nM | – | – | –
18 | CCN1C(=O)c2c(O)c(=O)c(C(=O)NCc3ccc(F)cc3F)cn2N2[C@H](C)CC[C@@]12C [II-131] | 0.49 nM | – | – | –
19 | CCN1C(=O)c2c(O)c(=O)c(C(=O)NCc3ccc(F)cc3F)cn2N2CC[C@@H](C(F)(F)F)C[C@@H]12 [II-132] | 0.51 nM | – | – | –
20 | CCN1C(=O)c2c(O)c(=O)c(C(=O)NCc3cccc(Cl)c3)cn2N2CCCC[C@@H]12 [II-134] | 3 nM | – | – | –

Row | SMILES | EC50 [1] | FC mutant strain 1 [2] | FC mutant strain 2 [3] | residual rate [4]
21 | CCN1C(=O)c2c(O)c(=O)c(C(=O)NCc3nn(C)cc3Cl)cn2N2CCCC[C@@H]12 [II-135] | 18 nM | – | – | –
22 | CC[C@@H](NC(=O)c1cn2c(c(O)c1=O)C(=O)N(CC)[C@@H]1CCCCN12)c1ccc(F)cc1F [II-137] | 33 nM | – | – | –
23 | C[C@@H]1CC[C@H]2N(C)C(=O)c3c(O)c(=O)c(C(=O)NCc4ccc(Cl)cc4F)cn3N12 [II-138] | 2.1 nM | – | – | –
24 | CN1C(=O)c2c(O)c(=O)c(C(=O)NCc3c(F)cc(F)cc3F)cn2N2CC3(CC3)C[C@@H]12 [II-139] | 0.62 nM | – | – | –
25 | CCN1C(=O)c2c(O)c(=O)c(C(=O)NCc3ccc(Cl)cc3)cn2N2CCCC[C@@H]12 [II-140] | 3.6 nM | – | – | –
26 | CCN1C(=O)c2c(O)c(=O)c(C(=O)NCc3ncc(F)cc3F)cn2N2CCCC[C@@H]12 [II-141] | 0.65 nM | – | – | –
27 | CCN1C(=O)c2c(O)c(=O)c(C(=O)NCc3cc(F)cc(F)c3F)cn2N2CCCC[C@@H]12 [II-142] | 0.74 nM | – | – | –
28 | CCN1C(=O)c2c(O)c(=O)c(C(=O)NCc3ccc(F)cc3F)cn2N2CCN(c3ccccc3)C[C@@H]12 [II-143] | 3.2 nM | – | – | –
29 | CCN1C(=O)c2c(O)c(=O)c(C(=O)NCc3ccc(F)cc3F)cn2N2[C@@H]3COC[C@@H]3C[C@@H]12 [II-145] | 0.68 nM | – | – | –
30 | CCN1C(=O)c2c(O)c(=O)c(C(=O)NCc3ccc(F)cc3F)cn2N2CCN(c3ncccn3)C[C@@H]12 [II-146] | 1.6 nM | – | – | –
31 | O=C(NCc1ccc(F)cc1F)c1cn2c(c(O)c1=O)C(=O)N1CCCC[C@]13CCCCN23 [II-147] | 0.66 nM | – | – | –
32 | CCN1C(=O)c2c(O)c(=O)c(C(=O)NCc3c(F)cccc3Cl)cn2N2CCCC[C@@H]12 [II-148] | 0.5 nM | – | – | –
33 | CCN1C(=O)c2c(O)c(=O)c(C(=O)NCc3ccc(F)cc3F)cn2N2C[C@@]3(CCOC3)C[C@@H]12 [II-149] | 1.2 nM | – | – | –
34 | CCN1C(=O)c2c(O)c(=O)c(C(=O)NCc3ccc(F)cc3F)cn2N2[C@H](COC)CCC[C@@H]12 [II-150] | 0.55 nM | – | – | –
35 | CN1C(=O)c2c(O)c(=O)c(C(=O)NCc3cccc(Cl)c3F)cn2N2CC[C@H](C(F)(F)F)C[C@@H]12 [II-151] | 1.6 nM | – | – | –
36 | CN1C(=O)c2c(O)c(=O)c(C(=O)NCc3cccc(Cl)c3F)cn2N2C[C@@H]3CCC[C@@H](O3)[C@@H]12 [II-152] | 0.7 nM | – | – | –
37 | CCN1C(=O)c2c(O)c(=O)c(C(=O)NCc3ccc(F)cc3F)cn2N2Cc3ccc(F)cc3[C@@]12C [II-154] | 0.67 nM | – | – | –
38 | CCN1C(=O)c2c(O)c(=O)c(C(=O)NCc3ccc(F)cc3F)cn2N2[C@H](C)c3cc(F)ccc3[C@@H]12 [II-155] | 1.2 nM | – | – | –
39 | CN1C(=O)c2c(O)c(=O)c(C(=O)NCc3c(F)cc(F)cc3F)cn2N2C[C@H]3C[C@H](C3)[C@@H]12 [II-158] | 0.27 nM | – | – | –
40 | CCN1C(=O)c2c(O)c(=O)c(C(=O)NCc3ccc(F)cc3F)cn2N2CCCC[C@@]12CC [II-159] | 0.56 nM | – | – | –

From patent publication US11649236B2, “Polycyclic carbamoylpyridone derivative” (Shionogi & Co., Ltd., priority 2018, dated 2023)
